Experimental data published in patent publication US7964624B1, “Inhibitors of serine proteases” (priority 2005, dated 2011).

Assays:
HCV NS3 protease domain = target: T1, HCV NS3 protease domain (Hepatitis C virus genotype 1b, UniProt Q9WMX2); assay: biochemical; conditions: Enzyme Assay 1 (HCV NS3 Protease Domain Peptide Cleavage Assay) activity, apparent Ki class
T1 construct: The first 181 amino acids of NS3 (residues 1027-1207 of the viral polyprotein); hexa-histidine (C); made in house; host or cells: E. coli BL21/DE3 pLysS

[1] = target: T2, full-length hepatitis C viral protein NS3•4A (Hepatitis C virus genotype 1a, UniProt P27958); assay: biochemical; set-up: species or system HCV sub-type strain 1a; conditions: Enzyme Assay 2 (HCV NS3 Peptide Cleavage Assay) activity, apparent Ki class
T2 construct: hexa-histidine (N); made in house; host or cells: Sf9 insect cells (baculovirus, pVL1392)

Compound	Ki (HCV NS3 protease domain) [nM]	Ki [1] [nM]
CCC[C@H](NC(=O)[C@@H]1C[C@]2(CC(c3csc(Cl)c3)=NO2)CN1C(=O)[C@@H](NC(=O)CC1CCCCC1)C(C)(C)C)C(=O)C(=O)NC1CC1 [Compound 62]	100 to 500	100 to 500
CCC[C@H](NC(=O)[C@@H]1C[C@]2(CC(c3cccc(Cl)c3)=NO2)CN1C(=O)[C@@H](NC(=O)CC1(C)CCOCC1)C(C)(C)C)C(=O)C(=O)NC1CC1 [Compound 541]	100 to 500	< 100
CCC[C@H](NC(=O)[C@@H]1C[C@]2(CC(c3cccc(Cl)c3)=NO2)CN1C(=O)[C@@H](CC(=O)NC1CCCCC1)C(C)C)C(=O)C(=O)NC1CC1 [Compound 21]	> 500	> 500
CCC[C@H](NC(=O)[C@@H]1C[C@]2(CC(c3cccc(Cl)c3)=NO2)CN1C(=O)[C@@H](NC(=O)CC1CCCCC1)C(C)(C)C)C(=O)C(=O)NCCOc1ccccc1OC [Compound 488]	> 500	100 to 500
CCC[C@H](NC(=O)[C@@H]1C[C@]2(CC(c3cc(Cl)cc4c3OCC4)=NO2)CN1C(=O)[C@@H](NC(=O)CC1CCCCC1)C(C)(C)C)C(=O)C(=O)NC1CC1 [Compound 134]	100 to 500	< 100
CCC[C@H](NC(=O)[C@@H]1C[C@]2(CC(c3cccc(Cl)c3)=NO2)CN1C(=O)[C@@H](NC(=O)CC1CCCCC1)C(C)(C)C)C(=O)C(=O)NCc1csc(-c2ccccc2)n1 [Compound 176]	100 to 500	100 to 500
CCC[C@H](NC(=O)[C@@H]1C[C@]2(CC(c3cc(Cl)cc(OC)c3OC)=NO2)CN1C(=O)[C@@H](NC(=O)CC1CCCCC1)C(C)(C)C)C(=O)C(=O)NC1CC1 [Compound 321]	100 to 500	< 100
C=C[C@@H]1C[C@]1(NC(=O)[C@@H]1C[C@]2(CC(c3cccc(Cl)c3)=NO2)CN1C(=O)[C@@H](NC(=O)OC1CCCC1)C(C)(C)C)C(=O)NS(=O)(=O)C1CC1 [Compound 190]	100 to 500	< 100
CN(C)C(=O)C(=O)[C@@H](CC1CCC1)NC(=O)[C@@H]1C[C@]2(CC(c3cccc(Cl)c3)=NO2)CN1C(=O)[C@@H](NC(=O)CC1CCCCC1)C(C)(C)C [Compound 188]	> 500	> 500
CCC[C@H](NC(=O)[C@@H]1C[C@]2(CC(c3cccc(Cl)c3)=NO2)CN1C(=O)[C@@H](NC(=O)CC1CCCCC1)C(C)(C)C)C(=O)C(=O)N1CC(OCC)C1 [Compound 133]	100 to 500	100 to 500
CCC[C@H](NC(=O)[C@@H]1C[C@]2(CC(c3cccc(Cl)c3)=NO2)CN1C(=O)[C@H](Cc1ccc(OC)cc1)NC(=O)CC1CCCCC1)C(=O)C(=O)NC1CC1 [Compound 213]	> 500	> 500
CCC[C@H](NC(=O)[C@@H]1C[C@]2(CC(c3ccsc3)=NO2)CN1C(=O)[C@@H](NC(=O)CC1CCCCC1)C(C)(C)C)C(=O)C(=O)NC1CC1 [Compound 168]	100 to 500	100 to 500
CCC[C@H](NC(=O)[C@@H]1C[C@]2(CC(c3ccc(C)c(Cl)c3)=NO2)CN1C(=O)[C@@H](NC(=O)CC1CCCCC1)C(C)(C)C)C(=O)C(=O)NC1CC1 [Compound 3]	100 to 500	< 100
CCC[C@H](NC(=O)[C@@H]1C[C@]2(CC(c3cccc(Cl)c3)=NO2)CN1C(=O)[C@@H](NC(=O)CC1CC2CCC1C2)C(C)(C)C)C(=O)C(=O)NC1CC1 (stereo partly shown) [Compound 467]	100 to 500	< 100
CCC[C@H](NC(=O)[C@@H]1C[C@]2(CC(c3cccc(Cl)c3)=NO2)CN1C(=O)[C@@H](NC(=O)CC12CCCCC1C2)C(C)(C)C)C(=O)C(=O)NC1CC1 (stereo partly shown) [Compound 19]	100 to 500	< 100
CCC[C@H](NC(=O)[C@@H]1C[C@]2(CC(c3cccc(Cl)c3)=NO2)CN1C(=O)c1cccc(S(=O)(=O)N2CCc3ccccc3C2)c1)C(=O)C(=O)NC1CC1 [Compound 328]	> 500	> 500
CC1(O)CCC(CC(=O)N[C@H](C(=O)N2C[C@@]3(CC(c4cccc(Cl)c4)=NO3)C[C@H]2C(=O)N[C@@H](CC2CC2)C(=O)C(N)=O)C(C)(C)C)CC1 (stereo partly shown) [Compound 5]	< 100	< 100
